Laboratory results: patent US20170162898A1, “Quaternary Ammonium Halides With Ether Functional Groups For Use As Battery Electrolytes” (Albemarle Corporation, priority 2014, published 2017)
Where “and” joins values, the source holds several entries; their conditions need not be identical. Equal entries are not always repeated.

Columns and labels:
[1] = Measurement of free bromine in aqueous phase; assay type: physicochemical; details: stirred 24 hrs, top aqueous phase, wt %
Description: The forward operation of a bromine-containing battery generally involves the conversion of elemental bromine to ionic bromine. The quat/Br2 complex results from an equilibrium reaction in which the Br2 is released from the complex as the concentration of free Br2 in the aqueous electrolyte drops during battery operation. In its fully charged state, the electrolyte solution inevitably contains some degree of uncomplexed bromine. A measure of a quat's ability to complex elemental bromine is the amount of elemental bromine left in solution when the complexation reaction proceeds to equilibrium. Such bromine is referred to as “free bromine.” Measurement of free bromine in aqueous phase is set forth in Example 1.
Two slightly different methods were used to prepare the electrolyte compositions, A) one containing 0.7M quat and B) the other containing 0.8M quat. In composition A, 2.0 moles of bromine was added to an aqueous solution containing 0.5 moles of zinc bromide and 0.7 moles of the quat. The two-phase mixture was stirred for 24 hrs. and then the phases were allowed to settle. The top aqueous phase was sampled for free bromine measurement. In composition B, 1.44 moles of bromine was added to an aqueous solution containing 0.5 moles of zinc bromide, 0.4 moles of zinc chloride and 0.8 moles of the quat. The top aqueous phase obtained after stirring for 24 hrs. was used for free bromine measurement.
A 250-ml Erlenmeyer flask was charged with 50 ml of deionized water and weighed (A). A sample of the clear aqueous phase was passed through glass wool to remove any suspended organic phase and then added to the Erlenmeyer flask. The flask was weighed again (B) and the difference in weight (B-A) was noted as the weight of the sample. About 20 ml of 20% potassium iodide solution followed by about 5 ml of starch solution was added to the flask. The resulting dark mixture was titrated against 0.02N sodium thiosulfate solution. The end-point was the disappearance of purple color. Free bromine (wt %) was calculated in the following manner:
Wt % free Br2=Volume (ml) of sodium Thiosulfate×Normality of Sodium thisosulfate/Sample Weight.

[2] = Cloud point determination (solubility in ZnBr2 solution); details: for Solubility in ZnBr2 Cloud Point: 0.7 M quat in 2.5M Zinc Bromide water solution
Experimental: By “cloud point” is meant the cloud point of an aqueous solution containing 0.7 M complexing agent and 2.5 M zinc bromide.
A 0.7M quaternary ammonium bromide in 2.5M Zinc Bromide water solution was prepared. • 2. The solution was transferred to a jacketed flask with a stirring bar and temperature monitor. • 3. The solution was warmed to 15° C. above the expected cloud point. If necessary, any moisture or impurities were removed by filtration. • 4. The solution was stirred, with speed adjustment to about 250 rpm, while avoiding the formation of bubbles. • 5. The solution was cooled gradually (cooling rate of about 1° C./5 min). • 6. The sample was inspected carefully for signs of cloudiness, and the temperature at which cloudiness was observed was recorded to the nearest 0.1° C.

[3] = Free bromine in electrolyte with chloroquat or bromoquat (Example 8); assay type: physicochemical; details: 0.84 M zinc bromide, 0.8 M quat, 1.44 M bromine; stirred for 24 hrs at 35° C.
Experimental: Chloride ions are added to the electrolyte in amounts sufficient to reduce the amount of free bromine present and increase the electrolyte conductivity during charging of the cell. Chloride ions in the electrolyte may come from zinc chloride or quaternary ammonium chloride complexing agent.
Experiment 1 of Example 8: An aqueous electrolyte system was prepared having 0.84 M zinc bromide, 0.8 NI chloroquat (N-methyl, N-butyl pyrrolidinium chloride) and 1.44 M bromine. After the sample was stirred for 24 hrs at 35° C., the amount of free bromine present in the electrolyte was 0.26%.
Experiment 2 of Example 8: An aqueous electrolyte system was prepared having 0.84 M zinc bromide, 0.8 M bromoquat (N-methyl, N-butyl pyrrolidinium bromide) and 1.44 NI bromine. After the sample was stirred for 24 hrs at 35° C., the amount of free bromine present in the electrolyte was 0.25%.

[4] = 0.7 M quat (composition A: 0.5 moles zinc bromide, 2.0 moles bromine)
[5] = 0.8 M quat (composition B: 0.5 moles zinc bromide, 0.4 moles zinc chloride, 1.44 moles bromine)

CCC[N+](CC)(CC)CC.[Br-] [Compound 5, triethylpropylammonium bromide]
Free Br2 [1, 4]: 0.089% and 0.7 M 0.089% | Solubility in ZnBr2 Cloud Point [2]: 0.7 M, 41.2 C.

CCC[N+](C)(C)CC.[Br-] [DMEP, dimethylethylpropyl ammonium bromide, reference compound]
cloud point ([2]; solution 0.7M in DMEP and 2.5M in ZnBr2): about 23.2 °C

CC[N+](C)(C)CCCC[N+](C)(C)CC.[Br-].[Br-] [Compound 15, Dimethylethyl Gemini Quat Bromide with Butyl Linkage]
Free Br2 [1, 4]: 0.59% and 0.7 M 0.59% | Solubility in ZnBr2 Cloud Point [2]: 0.7 M, 89.2 C.

CCC[N+]1(CC)CCCCC1 [Compound 10, EthyPropyl Piperidinium Bromide]
Free Br2 [1, 5]: 0.026% and 0.8 M 0.026% | Solubility in ZnBr2 Cloud Point [2]: 0.7 M, 45.8 C.

CCCC[N+](C)(C)CCOC.[Br-] [Compound 1, Dimethylbutylether Quat Bromide]
Free Br2 [1, 4]: 0.7 M 0.28% | Solubility in ZnBr2 Cloud Point [2]: 0.7 M, 29 C.

CC[N+](C)(CC)CCOC.[Br-] [Compound 4, diethylmethyl-(2-methoxyethyl)ammonium bromide]
Free Br2 [1, 4]: 0.7 M 0.70%

CCCC[N+]1(C)CCCC1.[Cl-] [chloroquat, N-methyl, N-butyl pyrrolidinium chloride]
amount of free bromine present in the electrolyte [3]: 0.26%

CC[N+]1(CC)CCCCC1.[Br-] [Compound 9, Diethyl Piperidinium Bromide]
Free Br2 [1, 5]: 0.26% and 0.8 M 0.26% | Solubility in ZnBr2 Cloud Point [2]: 0.7 M, 11.9 C.

CC[N+](C)(C)CCOCC[N+](C)(C)CC.[Br-].[Br-] [Compound 14, Dimethylethyl Gemini Quat Bromide with Diethylether Linkage]
Free Br2 [1, 4]: 0.71% and 0.7 M 0.71% | Solubility in ZnBr2 Cloud Point [2]: 0.7 M, 48.2 C.

CC[N+](CC)(CC)CCOC.[Br-] [Compound 2, (2-methoxyethyl)-triethylammonium bromide]
Free Br2 [1, 4]: 0.658% and 0.7 M 0.658% | Free Br2 [1, 5]: 0.467% and 0.8 M 0.467%

CCCC[N+]1(C)CCCC1.[Br-] [bromoquat, N-methyl, N-butyl pyrrolidinium bromide]
amount of free bromine present in the electrolyte [3]: 0.25%
